Test results reported in patent US20040192617A1, “Process for preparing phenolic acid salts of gabapentin” (priority 2003, published 2004).
Read-outs that look alike come from different tables or passages of the source.

Legend:
[1] = Solubility of the tannate salt, seen as precipitation from the reaction solution; assay type: physicochemical; conditions: water/ethanol mixture, room temperature; salt precipitates from solution
Procedure: The completeness of the reaction and the formation of the tannate salt were followed by taking samples at different stages of the conversion process. Due to the large size of the tannate salt, it usually precipitates from solution upon formation. The absence or loss of gabapentin from solution is correlated with the formation of the tannate salt.
The conversion process used in this example to synthesize the tannate salt of gabapentin is done at room temperature as follows: 250 ml of purified water and 50 ml of ethanol are placed in a beaker. While mixing the water/ethanol mixture, tannic acid is added and mixing is continued to form a solution. While mixing the tannic acid solution, gabapentin powder is added slowly. The gabapentin reacts with the tannic acid to form the tannate salt. […] The ratio of tannic acid to gabapentin used is 0.8:1.

[2] = in water and across a wide range of pH; cited from earlier work

gabapentin tannate
solubility [1]: low solubility

NCC1(CC(=O)O)CCCCC1 [Gabapentin, 1-(aminomethyl) cyclohexaneacetic acid]
solubility [2]: freely soluble
